pIC50: −log10 of the molar value. Activity calls are given as the source filed them. The rule behind the calls is not given here.
Columns and labels:
[1] = tested on: MDA-MB-231; experiment: Antiproliferative activity against human MDA-MB-231 cells assessed as reduction in cell viability incubated for 72 hrs by MTT assay; assay type: functional, cell-based; conditions: MDA-MB-231, 72 h
[2] = tested on: MDA-MB-468; experiment: Antiproliferative activity against human MDA-MB-468 cells assessed as reduction in cell viability incubated for 72 hrs by MTT assay; assay type: functional, cell-based; conditions: MDA-MB-468, 72 h
[3] = molecular target: T1, Bromodomain-containing protein 4 (Homo sapiens, UniProt O60885); experiment: Inhibition of BRD4 (unknown origin) at 1 uM relative to control
[4] = molecular target: T2, Poly [ADP-ribose] polymerase 1 (Homo sapiens, UniProt P09874); experiment: Inhibition of PARP1 (unknown origin) at 1 uM relative to control
[5] = tested on: MDA-MB-468; experiment: Cell cycle arrest in human MDA-MB-468 cells assessed as accumulation at G0/G1 phase at 10 uM incubated for 72 hrs by propidium iodide staining-based flow cytometry analysis (reference value: 61.4%); assay type: functional
[6] = tested on: MDA-MB-468; experiment: Cell cycle arrest in human MDA-MB-468 cells assessed as accumulation at G0/G1 phase at 20 uM incubated for 72 hrs by propidium iodide staining-based flow cytometry analysis (reference value: 61.4%); assay type: functional
[7] = tested on: MDA-MB-468; experiment: Cell cycle arrest in human MDA-MB-468 cells assessed as accumulation at S phase at 5 uM incubated for 72 hrs by propidium iodide staining-based flow cytometry analysis (reference value: 21.1%); assay type: functional
[8] = tested on: MDA-MB-468; experiment: Cell cycle arrest in human MDA-MB-468 cells assessed as accumulation at S phase at 10 uM incubated for 72 hrs by propidium iodide staining-based flow cytometry analysis (reference value: 21.1%); assay type: functional
[9] = tested on: MDA-MB-468; experiment: Cell cycle arrest in human MDA-MB-468 cells assessed as accumulation at S phase at 20 uM incubated for 72 hrs by propidium iodide staining-based flow cytometry analysis (reference value: 21.1%); assay type: functional
[10] = tested on: MDA-MB-468; experiment: Induction of apoptosis in human MDA-MB-468 cells assessed as early apoptotic cells at 10 uM incubated for 72 hrs by annexin V/propidium iodide staining-based flow cytometry analysis (reference value: 4.07%); assay type: functional
[11] = tested on: MDA-MB-468; experiment: Induction of apoptosis in human MDA-MB-468 cells assessed as late apoptotic cells at 10 uM incubated for 72 hrs by annexin V/propidium iodide staining-based flow cytometry analysis (reference value: 1.34%); assay type: functional
[12] = tested on: MDA-MB-468; experiment: Induction of apoptosis in human MDA-MB-468 cells assessed as downregulation of Bcl-2 protein level at 20 uM incubated for 72 hrs by Western blot analysis; assay type: functional, cell-based
[13] = tested on: MDA-MB-468; experiment: Induction of apoptosis in human MDA-MB-468 cells assessed as up-regulation of cleaved caspase 3 protein level at 20 uM incubated for 72 hrs by Western blot analysis; assay type: functional, cell-based
[14] = tested on: MDA-MB-468; experiment: Inhibition of clone formation in human MDA-MB-468 cells measured after 10 days by crystal violet staining based analysis; assay type: functional, cell-based; conditions: dose 5-20 µM, time 10.0 day, DDE = dose-dependent effect
[15] = tested on: MDA-MB-468; experiment: Induction of DNA damage in human MDA-MB-468 cells assessed as up-regulation of gammaH2AX expression level at 5 to 20 uMby DAPI staining based immunofluorescence assay; assay type: functional, cell-based; conditions: dose 5-20 µM
[16] = Cmax in Sprague-Dawley rat at 1 mg/kg, iv; assay type: ADME, organism-based; set-up: dose 1 mg/kg, route iv; conditions: in vivo
[17] = AUC (0 to t) in Sprague-Dawley rat at 1 mg/kg, iv; assay type: ADME, organism-based; set-up: dose 1 mg/kg, route iv; conditions: in vivo
[18] = AUC (0 to infinity) in Sprague-Dawley rat at 1 mg/kg, iv; assay type: ADME, organism-based; set-up: time infinity, dose 1 mg/kg, route iv; conditions: in vivo
[19] = Apparent volume of distribution in Sprague-Dawley rat at 1 mg/kg, iv; assay type: ADME, organism-based; conditions: in vivo
[20] = Toxicity in BALB/c nude mouse xenografted with human MDA-MB-468 cells assessed as change in body weight at 80 mg/kg, ig administered daily for 16 days measured every 3 days; assay type: organism-based; conditions: in vivo, po, 384 h, time 16 day
[21] = Toxicity in BALB/c nude mouse xenografted with human MDA-MB-468 cells assessed as morphological changes in heart at 80 mg/kg, ig administered daily for 16 days measured every 3 days by hematoxyin-eosin staining based analysis; assay type: organism-based; conditions: in vivo, po, 384 h, time 16 day
[22] = Toxicity in BALB/c nude mouse xenografted with human MDA-MB-468 cells assessed as morphological changes in heart at 40 to 80 mg/kg, ig administered daily for 16 days measured every 3 days by hematoxyin-eosin staining based analysis; assay type: organism-based; conditions: in vivo, po, 384 h, dose 40-80 mg/kg, time 16 day
[23] = Toxicity in BALB/c nude mouse xenografted with human MDA-MB-468 cells assessed as morphological changes in liver at 80 mg/kg, ig administered daily for 16 days measured every 3 days by hematoxyin-eosin staining based analysis; assay type: organism-based; conditions: in vivo, po, 384 h, time 16 day
[24] = Toxicity in BALB/c nude mouse xenografted with human MDA-MB-468 cells assessed as morphological changes in liver at 40 to 80 mg/kg, ig administered daily for 16 days measured every 3 days by hematoxyin-eosin staining based analysis; assay type: organism-based; conditions: in vivo, po, 384 h, dose 40-80 mg/kg, time 16 day
[25] = Toxicity in BALB/c nude mouse xenografted with human MDA-MB-468 cells assessed as morphological changes in spleen at 80 mg/kg, ig administered daily for 16 days measured every 3 days by hematoxyin-eosin staining based analysis; assay type: organism-based; conditions: in vivo, po, 384 h, time 16 day
[26] = Toxicity in BALB/c nude mouse xenografted with human MDA-MB-468 cells assessed as morphological changes in lung at 80 mg/kg, ig administered daily for 16 days measured every 3 days by hematoxyin-eosin staining based analysis; assay type: organism-based; conditions: in vivo, po, 384 h, time 16 day
[27] = Toxicity in BALB/c nude mouse xenografted with human MDA-MB-468 cells assessed as morphological changes in lung at 40 to 80 mg/kg, ig administered daily for 16 days measured every 3 days by hematoxyin-eosin staining based analysis; assay type: organism-based; conditions: in vivo, po, 384 h, dose 40-80 mg/kg, time 16 day
[28] = Toxicity in BALB/c nude mouse xenografted with human MDA-MB-468 cells assessed as morphological changes in kidney at 80 mg/kg, ig administered daily for 16 days measured every 3 days by hematoxyin-eosin staining based analysis; assay type: organism-based; conditions: in vivo, po, 384 h, time 16 day
[29] = tested on: MDA-MB-231; experiment: Antitumor activity against human MDA-MB-231 cells xenografted in BALB/c nude mouse assessed as reduction in c-Myc expression at 40 to 80 mg/kg incubated for 30 to 40 mins by immunohistochemical analysis; assay type: functional, organism-based; conditions: dose 40-80 mg/kg, time 30-40 min
[30] = tested on: MDA-MB-231; experiment: Antitumor activity against human MDA-MB-231 cells xenografted in BALB/c nude mouse assessed as downregulation of CtIP at 80 mg/kg by Western blot analysis; assay type: functional, organism-based
[31] = molecular target: T1, Bromodomain-containing protein 4; experiment: Inhibition of BRD4 (unknown origin)
[32] = tested on: MDA-MB-468; experiment: Downregulation of BRD4 expression level in human MDA-MB-468 cells by Western blot analysis; assay type: functional, cell-based; conditions: dose 5-20 µM, DDE = dose-dependent effect
[33] = tested on: MDA-MB-468; experiment: Downregulation of PARP1 expression level in human MDA-MB-468 cells by Western blot analysis; assay type: functional, cell-based; conditions: dose 5-20 µM, DDE = dose-dependent effect
[34] = tested on: MDA-MB-231; experiment: Inhibition of homologous recombinant repair in human MDA-MB-231 cells assessed as down-regulation of Mre11 expression at 5 to 20 uM in by Western blot analysis; assay type: functional, cell-based; conditions: dose 5-20 µM
[35] = molecular target: T2, Poly [ADP-ribose] polymerase 1

T2 sequence (P09874 whole entry): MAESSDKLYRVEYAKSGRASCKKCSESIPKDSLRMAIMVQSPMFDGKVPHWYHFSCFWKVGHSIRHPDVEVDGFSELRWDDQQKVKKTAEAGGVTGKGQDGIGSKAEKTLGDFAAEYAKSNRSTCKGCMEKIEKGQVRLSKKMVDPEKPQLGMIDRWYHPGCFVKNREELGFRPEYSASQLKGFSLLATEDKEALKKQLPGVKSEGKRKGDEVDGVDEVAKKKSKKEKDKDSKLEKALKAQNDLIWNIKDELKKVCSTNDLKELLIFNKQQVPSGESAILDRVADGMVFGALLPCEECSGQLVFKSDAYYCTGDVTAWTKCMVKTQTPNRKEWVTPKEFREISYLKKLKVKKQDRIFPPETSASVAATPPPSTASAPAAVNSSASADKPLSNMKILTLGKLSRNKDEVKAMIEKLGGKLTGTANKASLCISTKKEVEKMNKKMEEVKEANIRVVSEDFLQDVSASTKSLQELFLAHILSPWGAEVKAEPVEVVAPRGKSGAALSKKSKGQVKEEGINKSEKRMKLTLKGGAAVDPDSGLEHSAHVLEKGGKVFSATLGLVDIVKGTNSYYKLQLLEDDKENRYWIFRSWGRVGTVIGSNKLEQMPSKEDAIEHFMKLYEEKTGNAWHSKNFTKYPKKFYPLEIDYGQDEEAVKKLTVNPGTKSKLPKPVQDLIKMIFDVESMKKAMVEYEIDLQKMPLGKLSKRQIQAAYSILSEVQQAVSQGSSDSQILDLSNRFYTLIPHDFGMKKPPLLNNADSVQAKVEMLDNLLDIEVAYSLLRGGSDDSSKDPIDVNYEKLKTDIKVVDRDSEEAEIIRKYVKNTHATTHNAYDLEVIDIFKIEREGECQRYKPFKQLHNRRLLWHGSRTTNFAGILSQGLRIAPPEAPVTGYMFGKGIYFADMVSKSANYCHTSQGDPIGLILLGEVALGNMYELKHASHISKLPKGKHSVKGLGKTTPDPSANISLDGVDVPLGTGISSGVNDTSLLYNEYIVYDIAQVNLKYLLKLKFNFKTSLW

In the case of `COc1cc(OC)c2c(=O)[nH]c(-c3cccc(Cc4n[nH]c(=O)c5ccccc45)c3)nc2c1`, the pIC50 [1] was 5.18, the pIC50 [2] was 5.52 and the inhibition [3] was 76.2%. For the same compound, the inhibition [4] was 79.2%, the Activity [5] was 63.2% and the Activity [6] was 74.3%. For the same compound, the Activity [7] was 22.2%, the Activity [8] was 22.8% and the Activity [9] was 12.4%. The Activity [10] was 25.61%, the Activity [11] was 4.94% and the Activity [12] was “Active”. For the same compound, the Activity [13] was “Active”, the inhibition [14] was “Dde” and the Activity [15] was “Active”. It also gave a Cmax [16] of 258 ng/mL, an AUC(0-t) [17] of 629 ng·h/mL and an AUC(0-inf) [18] of 642 ng·h/mL. The Vz [19] was 21.1 L/kg, the Activity [20] was “Non-Toxic” and the Activity [21] was “Non-Toxic”. The Activity [22] was “Non-Toxic”, the Activity [23] was “Non-Toxic” and the Activity [24] was “Non-Toxic”. The Activity [25] was “Non-Toxic”, the Activity [26] was “Non-Toxic” and the Activity [27] was “Non-Toxic”. The Activity [28] was “Non-Toxic”, the Activity [29] was “Active” and the Activity [30] was “Active”. For the same compound, the pIC50 [31] was 6.62, the Activity [32] was “Dde” and the Activity [33] was “Dde”. For the same compound, the Activity [34] was “Active” and the pIC50 [35] was 6.71.
